Measurements: PMC11172460 (International Journal of Molecular Sciences, 2024)
Like-named read-outs stand apart in the source and are kept apart here.

How the values were obtained:
[1] = rodents and humans, ranging from a few minutes to 30 min; cited from earlier work
[2] = same tristearin carriers; cited from earlier work
[3] = rat brain homogenates, cited from earlier work; for amount hydrolyzed: within 6 h
[4] = rat liver homogenates, cited from earlier work
[5] = parameters: method as in PMID 10669289; settings: 1-octanol/water; cited from earlier work
[6] = system: differentiated N2a cells; test: DCFH-DA assay of intracellular ROS production; type: cell-based, mouse
Experimental: (§1) N2a cells were seeded on T75 flasks and grown in Dulbecco’s Modified Eagle Medium (DMEM) containing Glutamax, supplemented with 100 μg/mL streptomycin, 100 IU/mL penicillin, and 10% fetal bovine serum (FBS) in a humidified 5% CO2 atmosphere at 37 °C. After two passages by trypsinization, cells were seeded at a density of 5 × 10^3 cells/well in 12-well plates with 2 mL of DMEM or at a density of 5 × 10^2 cells/well in 96-well plates with 0.2 mL of DMEM, depending on the study (see below). For neural differentiation, N2a cells were allowed to adhere and proliferate in wells for 4 days; then, after washing once with serum-free DMEM, differentiating medium composed of DMEM containing 1% HS and 20 μM all-trans-retinoic acid (atRA) was added in both the seeding conditions, up to 6 days of differentiation, after which the cells were used for the experiments.
The potential antioxidant effect of Fer-Ger was evaluated according to the original method of Wang and Joseph. In this method, the nonpolar 2′,7′-dichlorofluorescin diacetate (DCFH-DA) enters the intact cells and is hydrolyzed by intracellular esterases to nonfluorescent DCFH carboxylate anion, which remains entrapped and becomes the high fluorescent dichlorofluorescin (DCF) after oxidation by free radicals generated by a stressor, such as H2O2. Therefore, H2O2-induced intracellular ROS production was measured in N2a cells by a florescence intensity assay following exposure to the oxidation-sensitive dye DCFH-DA. N2a cells were seeded at a density of 1 × 10^4 cells/well in a black-coated and clear bottom 96-well plate and neuron-differentiated as reported above. After 6 days, differentiating medium in N2a cells was replaced with pre-warmed phenol-red-free and serum-free DMEM containing 10 µM DCFH-DA and incubated for 30 min in the dark in a humidified 5% CO2 atmosphere at 37 °C. The 10 µM DCFH-DA loading solution was then removed, and the cells were washed twice with fresh phenol-red-free and serum-free DMEM to remove the redundant extracellular DCFH-DA probe. Subsequently, N2a cells were incubated with pre-warmed phenol-red free DMEM containing 1% FBS as an untreated control and with solutions dissolved in phenol-red free DMEM containing 1% FBS of Fer-Ger (1, 5, or 10 µM) or 100 µM ascorbic acid (AA, as an established antioxidant positive control) and incubated for 1 h in a humidified 5% CO2 atmosphere at 37 °C. After this time, 100 µM H2O2 was added in the absence or presence of 1, 5 or 10 µM Fer-Ger or 100 µM AA, and the fluorescence intensity was measured at an excitation wavelength of 485 nm and at an emission wavelength of 530 nm, monitoring the oxidation of DCFH to DCF by the intracellular ROS by running the kinetic over 75 min in a fluorescence microplate reader (VICTOR^3TM 1420 Multilabel counter, PerkinElmer, Milan, Italy). Results were represented as a percentage of intracellular ROS production (100% of control) resulting from the mean values ± SEM of sextuplicate wells over time.

[7] = system: differentiated N2a cells; test: MTT assay of H2O2-altered viability (neuroprotection); type: cell-based, mouse; settings: 100 µM H2O2 for 24 h
Experimental: as §1
The MTT assay was also carried out to determine the neuroprotective effect of Fer-Ger on H2O2-induced cell oxidative stress in N2a neuronal cells. Briefly, N2a cells (5 × 10^2) were seeded and differentiated into 96-well plates, as reported above. Then, cells were incubated with 1 µM and 5 µM Fer-Ger dissolved in DMEM containing 0.5% HS for 1 h in a humidified 5% CO2 atmosphere at 37 °C. The experimental design therefore included cells incubated with only culture medium as a control and cells incubated for 24 h with 100 µM H2O2 as a damage-inducing agent after 1 h of preincubation in the absence or presence of 1 µM or 5 µM Fer-Ger. Then, 20 μL of MTT (5 mg/mL) was added into the 200 µL of the incubation medium. Four hours later, the medium containing MTT was aspirated and replaced by 100 µL of dimethyl sulfoxide (DMSO) solubilization agent for 1 h at 37 °C in an orbital shaker incubator. Finally, the absorbance of each well was measured at 570 nm using a microtiter plate reader (Sunrise® Microplate Reader, Tecan Trading AG, Männedorf, Switzerland).

## COc1cc(/C=C/C(=O)O)ccc1O [Fer, ferulic acid]
[1]
  in vivo half-lives: ≤ 30 min
[2]
  drug loading: 0.38 % w/w
  encapsulation efficiency (EE): about 14%

## COC(=O)/C=C/c1ccc(OC(=O)/C=C/c2ccc(O)c(OC)c2)c(OC)c1 [Fer-Fer-Me]
[3]
  half-life of hydrolysis: about 14 min
[2]
  drug loading: 0.49 % w/w
  encapsulation efficiency (EE): about 19%

## COc1cc(C=CC(=O)Oc2ccc(C=CC(=O)O)cc2OC)ccc1O [Fer-Fer]
[3]
  amount hydrolyzed: about 50%

## COC(=O)/C=C/c1ccc(O)c(OC)c1 [Fer-Me]
[3]
  hydrolysis: total absence of hydrolysis processes
[2]
  drug loading: 0.72 % w/w
  encapsulation efficiency (EE): about 28%

## CC(C)=CCCC(C)=CCOC(=O)CCC(C)C1CCC2C3C(O)CC4CC(O)CCC4(C)C3CCC12C (stereo not shown) [GER-UDCA]
[3]
  amount hydrolyzed: about 30%
[4]
  half-life of hydrolysis: higher than 30 min

## CC(C)=CCC/C(C)=C/CO [Ger, geraniol]
[1]
  in vivo half-lives: ≤ 30 min
[5]
  Log P: 3.56

## OO [H2O2, hydrogen peroxide, reference compound]
[6]; 100 µM H2O2, 75 min observation
  effect on DCF fluorescence (ROS production): significantly and time-dependently increased DCF fluorescence
[7]
  reduction of cell viability compared to untreated cells: 74%

## Cc1cn([C@H]2C[C@H](N=[N+]=[N-])[C@@H](COC(=O)CC[C@@H](C)[C@H]3CC[C@H]4[C@@H]5[C@@H](O)C[C@@H]6C[C@H](O)CC[C@]6(C)[C@H]5CC[C@]34C)O2)c(=O)[nH]c1=O [UDCA-AZT]
[3]
  half-life of hydrolysis: about 7 min
[2]
  drug loading: 0.57 % w/w
  encapsulation efficiency (EE): about 26%
[4]; ref our previous results
  hydrolysis rate: the same hydrolysis rate as Fer-Ger

## O=C1O[C@H]([C@@H](O)CO)C(O)=C1O [ascorbic acid]
[6]; 100 µM ascorbic acid alone
  effect on basal ROS production: without by itself modifying basal ROS production
[6]; 100 µM ascorbic acid with 100 µM H2O2
  effect on H2O2-induced ROS production: completely prevented the H2O2-induced ROS production
